Results: PubChem BioAssay (NCI)
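48-hour exposure; five concentrations; linearly interpolated endpoints. TGI is the concentration that stops growth completely.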

How the values were obtained:
Experiment in all cases: DTP human tumour cell line panel, 48 h
NCI/ADR-RES ovarian = test system: NCI/ADR-RES ovarian
HOP-92 NSCLC = test system: HOP-92 NSCLC
KM12 colon = test system: KM12 colon
HOP-62 NSCLC = test system: HOP-62 NSCLC
CCRF-CEM leukemia = test system: CCRF-CEM leukemia
M14 melanoma = test system: M14 melanoma
ACHN renal = test system: ACHN renal
EKVX NSCLC = test system: EKVX NSCLC
SN12C renal = test system: SN12C renal
NCI-H226 lung = test system: NCI-H226 lung
MCF7 breast = test system: MCF7 breast
HT29 colon = test system: HT29 colon
A498 renal = test system: A498 renal
LOX IMVI melanoma = test system: LOX IMVI melanoma
HCC-2998 colon = test system: HCC-2998 colon
SNB-19 CNS = test system: SNB-19 CNS
SNB-75 CNS = test system: SNB-75 CNS
BT-549 breast = test system: BT-549 breast
SW-620 colon = test system: SW-620 colon

Row | SMILES | TGI (NCI/ADR-RES ovarian) [µM] | TGI (HOP-92 NSCLC) [µM] | TGI (KM12 colon) [µM] | TGI (HOP-62 NSCLC) [µM] | TGI (CCRF-CEM leukemia) [µM] | TGI (M14 melanoma) [µM] | TGI (ACHN renal) [µM] | TGI (EKVX NSCLC) [µM] | TGI (SN12C renal) [µM] | TGI (NCI-H226 lung) [µM] | TGI (MCF7 breast) [µM] | TGI (HT29 colon) [µM] | TGI (A498 renal) [µM] | TGI (LOX IMVI melanoma) [µM] | TGI (HCC-2998 colon) [µM] | TGI (SNB-19 CNS) [µM] | TGI (SNB-75 CNS) [µM] | TGI (BT-549 breast) [µM] | TGI (SW-620 colon) [µM]
1 | O=c1[nH]c(=O)n(C2CC(O)C(CO)O2)cc1NN=NCCCc1ccccc1 (stereo not drawn) | > 100 | > 100 | > 100 | > 100 | > 100 | > 100 | > 100 | > 100 | > 100 | > 100 | > 100 | > 100 | > 100 | > 100 | > 100 |  |  |  | 
2 | O=c1[nH]c2ccccc2c(O)c1/C=N/C(=S)NCc1ccccc1 | > 100 | > 100 | > 100 | > 100 |  | > 100 | > 100 | > 100 | > 100 | > 100 | > 100 | > 100 |  | > 100 |  | > 100 | > 100 | > 100 | > 100
3 | CC(=O)OCc1cncn1S(=O)(=O)c1ccc(C)cc1 | > 100 | > 100 | > 100 | > 100 | > 100 | > 100 | > 100 | > 100 | > 100 | > 100 | > 100 | > 100 |  | > 100 | > 100 | > 100 | > 100 | > 100 | > 100
4 | CCCCCCCCCCCCc1ccc(S(=O)(=O)O)cc1.[Zn+2] | > 100 | > 100 | > 100 | > 100 | > 100 | > 100 | > 100 | > 100 | > 100 | > 100 | > 100 | > 100 | 95.9 | > 100 | > 100 | > 100 | > 100 |  | > 100
5 | CC1=NN(C(=O)CC(=O)Nc2ccccc2Cl)C(=O)C1N=Nc1ccc(S(=O)(=O)c2ccc(N=NC3C(=O)N(C(=O)CC(=O)Nc4ccccc4Cl)N=C3C)cc2)cc1 (stereo not drawn) | > 100 | > 100 | > 100 | > 100 | > 100 | > 100 | > 100 | > 100 | > 100 | > 100 | > 100 | > 100 |  | > 100 | > 100 | > 100 | > 100 | > 100 | > 100
6 | O=C(CCC(=O)CC(O)(C(F)(F)F)C(F)(F)F)CC(O)(C(F)(F)F)C(F)(F)F | > 100 | 49.4 | > 100 | > 100 | > 100 | > 100 | > 100 | > 100 | > 100 | 69.5 | > 100 | > 100 | 67.4 |  | > 100 | 72.4 | > 100 |  | > 100
7 | CC(=O)c1ccccc1NCC(=O)Nn1cnc2ccc(S(=O)(=O)Nc3ccccc3C(C)=O)cc2c1=O | > 100 | > 100 | > 100 | > 100 | > 100 | > 100 | > 100 | > 100 | > 100 | > 100 | > 100 | > 100 |  | > 100 | > 100 | > 100 | > 100 | > 100 | > 100
8 | O=c1cc(NNc2cccc(F)c2)[nH]c(=O)[nH]1 | > 100 | 30 | > 100 | > 100 | 55.9 | 33.9 | > 100 |  | > 100 | > 100 |  | 29.9 | > 100 | 36.9 | > 100 | > 100 | > 100 | > 100 | 34.5
9 | CCCCCCCC(CC(=O)NC(CO)C(=O)NC(CO)CC(C)C)OC(=O)CC(CCCCCCC)OC(=O)CC(CCCCCCC)OC1OC(C)C(O)C(OC2OC(C)C(O)C(O)C2OC(C)=O)C1O (stereo not drawn) |  | 22 | 10.8 | 27.1 | 11.8 | 18.7 | 28.9 | 27.9 | 16.8 | 39 | 23.8 | 13.7 | 29.4 |  | 25.8 | 20.8 | 17.6 | 25.1 | 22.2
10 | CNC(=S)N/N=C(\C(=N/NC(=S)NC)c1ccccn1)c1ccccn1 |  | > 100 | > 100 | > 53.5 |  | 24.5 | > 44.6 | > 100 | > 100 | > 75.1 | > 100 | > 100 | > 100 | > 100 | > 100 | > 100 | > 92.6 | > 100 | > 100
11 | CC1(C)C(CCO)CC1n1cc(I)c(=O)[nH]c1=O (stereo not drawn) | > 100 | > 100 | > 100 | > 100 | > 100 | > 100 | > 100 | > 100 | > 100 | > 100 | > 100 |  | > 100 | > 100 | > 100 | > 100 | > 100 |  | > 100
12 | O=C1Nc2ccccc2Cn2c1cc1oc(-c3ccccc3)cc12 | > 100 | 73.7 | > 100 | 44.8 | > 100 |  | > 100 | > 100 | > 100 |  | > 100 | > 100 | > 100 | > 100 | > 100 | 66.5 | 64.2 |  | > 100
13 | Cc1ccc(C(=O)N(Cc2ccccc2)Cc2ccccc2)cc1N=NN(C)C | > 100 | 70.1 | > 86.5 | 90 | > 100 | > 81.2 | > 92.7 | > 100 | > 81.1 | 56.2 | 65.9 | 21.3 |  | 15.6 | 96 | > 100 |  | 45.6 | > 100
14 | COC(=O)CCc1ccc2c(c1)C(=O)CC2 | > 100 | > 100 |  | > 100 | > 100 | > 100 | > 100 | > 100 |  |  | > 100 | > 100 | > 100 | > 100 | > 100 | > 100 | 99.9 |  | > 100
15 | CCN(CC)C(=S)Nc1ccc(-c2cc3ccc(O)cc3oc2=O)cc1 | 81.9 |  | > 100 |  | > 100 | > 100 | > 100 | > 100 | > 100 | 99.5 |  | 30.4 | 96.5 | > 100 | 39.8 | > 100 | > 100 | 85 | > 100
16 | Cc1ccc(-n2cc(-c3ccc(Cl)cc3)c3c(N/N=C4\SCC(=O)N4C)ncnc32)cc1 | > 100 | 8.24 | > 100 | 98.8 | > 100 | 19.5 | > 100 | > 100 | > 100 | > 100 |  | > 100 | 31.3 | > 100 |  | 63.1 |  | 82 | > 100
17 | O=C1c2ccccc2C(=O)c2sc(Nc3ccccc3C(F)(F)F)nc21 |  | 23.7 | 27.4 | 28.2 | > 100 | 50.7 | 33 | 55.1 | > 100 |  | 45.9 |  | 28.9 | > 100 | 35.2 | 55.2 | 35.8 |  | 24.4
18 | COc1cc(C2SC(C)C(=O)N2c2ccc(-c3csc(NS(=O)(=O)c4ccc(Cl)c(OC)c4)n3)cc2)ccc1O (stereo not drawn) | > 100 | > 100 | 48.3 | > 100 | > 100 | > 100 | > 100 |  | 56.7 | > 100 | > 100 | > 100 | > 100 | > 100 |  | > 100 | 61 |  | > 100
19 | O=C1c2ccccc2C(=O)c2c(O)c(NCCCNCCO)cc(O)c21 |  | 31.7 | 21 | 15.4 | 15.5 | 36.6 | 15.9 | 28.3 | 25.8 | 22 |  | 18.7 | 33.1 |  | 17 |  | 26.8 |  | 18.4
20 | O=[N+]([O-])c1ccc(N/N=C/CC(O)(C(F)(F)F)C(F)(F)F)c([N+](=O)[O-])c1 | > 10 | 6.59 | > 10 | > 10 | > 10 | > 10 | > 10 | > 10 | > 10 | > 10 | > 10 | > 10 | > 10 | > 10 | > 10 | > 10 | > 10 |  | > 10
21 | CSCCCS/C1=C/CCCCCCCCCC1 | > 100 | > 100 | > 100 | > 100 |  | > 100 | > 100 | > 100 | > 100 | > 100 | > 100 | > 100 | > 100 | > 100 | > 100 | > 100 | > 100 |  | 
22 | O=S(OC12CC3CC(CC(C3)C1)C2)c1cc(Cl)cc(Cl)c1OCc1ccccc1 (stereo not drawn) |  |  | > 100 | > 100 | > 100 | > 100 | > 100 | > 100 | > 100 |  |  | > 100 | > 100 | > 100 | > 100 | > 100 | > 100 |  | 
23 | O=C(NC1CCCCC1)c1cc2ccccc2cc1O | 54.7 | 65.1 | > 100 | > 100 | > 100 | 53.3 |  | > 100 |  | 41 | > 100 | 37 | 78.3 | > 100 | 58.8 | > 100 | > 100 |  | > 100
24 | CCOC(=O)c1cc(I)c(-c2cc(C)no2)n1C | > 100 | > 100 | 49.3 |  | > 100 | > 100 | > 100 | > 100 | 69.4 | > 100 |  | > 100 | > 100 | > 100 |  | > 100 | > 100 | > 100 | > 100
25 | CN(CCO)CCCC1COc2ccccc2O1 (stereo not drawn) | > 100 | > 100 |  | > 100 | > 100 | > 100 | > 100 | > 100 | > 100 | > 100 | > 100 | > 100 |  |  | > 100 | > 100 | > 100 | > 100 | > 100
26 | COc1cc(C2c3cc4c(cc3OC(Nc3ccccc3)C2C)OCO4)cc(OC)c1O (stereo not drawn) | 8.02 | 48.7 | 38.7 |  |  | 60.7 |  |  | 21.2 | 39.8 | 24.6 | 18.1 |  |  | 14.6 | > 100 | 7.35 | 26 | 16.3
27 | CCOP(=O)(OCC)C(c1ccccc1)N(C(=O)NC(F)(F)F)c1cccc(F)c1 (stereo not drawn) | > 100 |  | > 100 | > 100 | > 100 | > 100 | > 100 | > 100 | > 100 | > 100 | > 100 | > 100 |  | > 100 | > 100 | > 100 | > 100 |  | > 100
28 | CCOC(=O)c1c(-c2ccc(Cl)cc2)c(C#N)c(=S)n(C2OC(COC(C)=O)C(OC(C)=O)C(OC(C)=O)C2OC(C)=O)c1-c1ccccc1 (stereo not drawn) | > 100 | 81.7 | > 100 | > 100 | > 100 | > 100 | > 100 |  | > 100 |  | > 100 | > 100 |  | > 100 | > 100 | > 100 | > 100 | > 100 | > 100
